According to patent publication US8940754B2, “10′-fluorinated Vinca alkaloids provide enhanced biological activity against MDR cancer cells” (priority 2010, dated 2015):
Like-named read-outs stand apart in the source and are kept apart here.

Experiments:
Assay in all cases: cells
HCT116/VM46 = type: cell-based, human; conditions: Homo sapiens
L1210 = type: cell-based, mouse; conditions: Mus musculus
HCT116 = type: cell-based, human; conditions: Homo sapiens
[1] = HCT-116/VM46, Table 2A, C10′-substituted anhydrovinblastines, single evaluations, read-out: IC50 (nM) HCT116/VM46
[2] = L1210, Table 2A, C10′-substituted anhydrovinblastines, single evaluations, read-out: IC50 (nM) L1210
[3] = HCT-116, Table 2A, C10′-substituted anhydrovinblastines, single evaluations, read-out: IC50 (nM) HCT116
[4] = HCT-116/VM46, Table 2B, C10′-substituted vinblastines, single evaluations, read-out: IC50 (nM) HCT116/VM46
[5] = L1210, Table 2B, C10′-substituted vinblastines, single evaluations, read-out: IC50 (nM) L1210
[6] = HCT-116, Table 2B, C10′-substituted vinblastines, single evaluations, read-out: IC50 (nM) HCT116

Row | Structure (SMILES) | IC50 (HCT116/VM46; [1]) [nM] | IC50 (L1210; [2]) [nM] | IC50 (HCT116; [3]) [nM] | IC50 (HCT116/VM46; [4]) [nM] | IC50 (L1210; [5]) [nM] | IC50 (HCT116; [6]) [nM] | other results
1 | CCC1=C[C@@H]2CN(CCc3c([nH]c4ccc(C#N)cc34)[C@@](C(=O)OC)(c3cc4c(cc3OC)N(C)C3C(O)(C(=O)OC)[C@H](OC(C)=O)[C@]5(CC)C=CCN6CC[C@]43[C@@H]65)C2)C1 (stereo partly drawn) [Compound 15a, 10′-cyanoanhydrovinblastine] | – | – | – | – | – | – | IC50 (HCT116/VM46; HCT-116/VM46, read-out: IC50 (nM) HCT116/VM46): 920 nM; IC50 (L1210; L1210, read-out: IC50 (nM) L1210): 65 nM; IC50 (HCT116; HCT-116, read-out: IC50 (nM) HCT116): 70 nM
2 | CCC1=C[C@@H]2CN(CCc3c([nH]c4ccc(I)cc34)[C@@](C(=O)OC)(c3cc4c(cc3OC)N(C)C3C(O)(C(=O)OC)[C@H](OC(C)=O)[C@]5(CC)C=CCN6CC[C@]43[C@@H]65)C2)C1 (stereo partly drawn) [Compound 16a, 10′-iodoanhydrovinblastine] | 1800 | 620 | 600 | – | – | – | –
3 | CC[C@]1(O)C[C@@H]2CN(CCc3c([nH]c4ccc(I)cc34)[C@@](C(=O)OC)(c3cc4c(cc3OC)N(C)C3C(O)(C(=O)OC)[C@H](OC(C)=O)[C@]5(CC)C=CCN6CC[C@]43[C@@H]65)C2)C1 (stereo partly drawn) [Compound 16b, 10′-iodovinblastine] | – | – | – | 840 | 55 | 60 | –
4 | CCC1=C[C@@H]2CN(CCc3c([nH]c4ccc(Br)cc34)[C@@](C(=O)OC)(c3cc4c(cc3OC)N(C)C3C(O)(C(=O)OC)[C@H](OC(C)=O)[C@]5(CC)C=CCN6CC[C@]43[C@@H]65)C2)C1 (stereo partly drawn) [Compound 17a, 10′-bromoanhydrovinblastine] | 860 | 65 | 70 | – | – | – | –
5 | CC[C@]1(O)C[C@@H]2CN(CCc3c([nH]c4ccc(Br)cc34)[C@@](C(=O)OC)(c3cc4c(cc3OC)N(C)C3C(O)(C(=O)OC)[C@H](OC(C)=O)[C@]5(CC)C=CCN6CC[C@]43[C@@H]65)C2)C1 (stereo partly drawn) [Compound 17b, 10′-bromo-vinblastine] | – | – | – | 270 | 8 | 8.6 | –
6 | CCC1=C[C@@H]2CN(CCc3c([nH]c4ccc(Cl)cc34)[C@@](C(=O)OC)(c3cc4c(cc3OC)N(C)C3C(O)(C(=O)OC)[C@H](OC(C)=O)[C@]5(CC)C=CCN6CC[C@]43[C@@H]65)C2)C1 (stereo partly drawn) [Compound 18a, 10′-chloroanhydrovinblastine] | 800 | 60 | 70 | – | – | – | –
7 | CC[C@]1(O)C[C@@H]2CN(CCc3c([nH]c4ccc(Cl)cc34)[C@@](C(=O)OC)(c3cc4c(cc3OC)N(C)C3C(O)(C(=O)OC)[C@H](OC(C)=O)[C@]5(CC)C=CCN6CC[C@]43[C@@H]65)C2)C1 (stereo partly drawn) [Compound 18b, 10′-chlorovinblastine] | – | – | – | 720 | 6.2 | 7.6 | –
8 | CCC1=C[C@@H]2CN(CCc3c([nH]c4ccc(SC)cc34)[C@@](C(=O)OC)(c3cc4c(cc3OC)N(C)C3C(O)(C(=O)OC)[C@H](OC(C)=O)[C@]5(CC)C=CCN6CC[C@]43[C@@H]65)C2)C1 (stereo partly drawn) [Compound 20a, 10′-thiomethylanhydrovinblastine] | 770 | 60 | 85 | – | – | – | –
9 | CC[C@]1(O)C[C@@H]2CN(CCc3c([nH]c4ccc(SC)cc34)[C@@](C(=O)OC)(c3cc4c(cc3OC)N(C)C3C(O)(C(=O)OC)[C@H](OC(C)=O)[C@]5(CC)C=CCN6CC[C@]43[C@@H]65)C2)C1 (stereo partly drawn) [Compound 20b, 10′-thiomethylvinblastine] | – | – | – | 740 | 45 | 35 | –
10 | CCC1=C[C@@H]2CN(CCc3c([nH]c4ccc(C)cc34)[C@@](C(=O)OC)(c3cc4c(cc3OC)N(C)C3C(O)(C(=O)OC)[C@H](OC(C)=O)[C@]5(CC)C=CCN6CC[C@]43[C@@H]65)C2)C1 (stereo partly drawn) [Compound 21a, 10′-methylanhydrovinblastine] | 640 | 65 | 65 | – | – | – | –
11 | CC[C@]1(O)C[C@@H]2CN(CCc3c([nH]c4ccc(C)cc34)[C@@](C(=O)OC)(c3cc4c(cc3OC)N(C)C3C(O)(C(=O)OC)[C@H](OC(C)=O)[C@]5(CC)C=CCN6CC[C@]43[C@@H]65)C2)C1 (stereo partly drawn) [Compound 21b, 10′-methylvinblastine] | – | – | – | 600 | 7.8 | 7.8 | –
12 | CCC1=C[C@@H]2CN(CCc3c([nH]c4ccc(OC)cc34)[C@@](C(=O)OC)(c3cc4c(cc3OC)N(C)C3C(O)(C(=O)OC)[C@H](OC(C)=O)[C@]5(CC)C=CCN6CC[C@]43[C@@H]65)C2)C1 (stereo partly drawn) [Compound 22a, 10′-methoxyanhydrovinblastine] | 5500 | 550 | 640 | – | – | – | –
